Patent US7795290B2 (Genentech, Inc., priority 2004, dated 2010)

What follows are compounds tested against T1, AKT1 (Homo sapiens, UniProt P31749) (assay: HTS ATP-utilizing enzyme assay, off-chip mobility-shift (Caliper HTS 250)). Details: kinase named = inhibitory activity/selectivity; test compound 10 μM; active = greater than three-sigma from mean.
T1 construct: purchased Upstate 14-276
Format: biochemical
From the text: The following procedures describe the reagent and plate preparation for a HTS of an ATP-utilizing enzyme, such as a protein kinase, run in an off-chip mobility-shift assay format. The following provides an HTS protocol for running a protein kinase HTS screen on a Caliper HTS 250 microfluidics system. The following parameters are dependent on the protein kinase used and can be determined by one skilled in the art as part of a typical assay development process. For example, the peptide substrate used can be identified from the current literature, by screening a peptide library of potential protein kinase substrates, or by other applicable means accepted in the field.
The following table provides typical screen assay parameters appropriate for a Caliper HTS 250 microfluidics system used to assay AKT1. Parameters used to assay other protein kinases can be determined by one skilled in the art.
Assays to determine the kinase inhibitory activity of chemical entities of the present disclosure were performed using a Caliper HTS 250 microfluidics device, Greiner U-bottom assay plates, a Multidrop for transfer of reagents, and Biomek FX (AMNCBM03) software. Initially, 2.4 μL of a 1 mM solution of a test compound in 100% DMSO was added to a well of the Greiner U-bottom plate. A single Greiner U-bottom plate having 24×16 wells could include multiple test compounds. […] Using the Biomek FX, 10 μL of 0.5 M EDTA was added by the span-8 to wells, indicated as 100% Control and 2.4 μL of 100% DMSO was added by the span-8 to wells, indicated as 0% Control. […] The total reaction volume in each well was 25 μL, and the concentration of the test compound was 10 μM. The assay plate was incubated for 2.5 hrs at 20° C. to 22° C. […] The inhibition of the ATP-utilizing enzyme, such as a particular protein kinase, was determined by measuring the ratio of the peptide substrate to phosphorylated product for each well of the assay plate using the Caliper HTS 250 system.
The use of three-sigma statistical limits represents a conservative method for declaring potential hits among targets. The three-sigma activity, as well as the mean population activity, can be different for each target enzyme.
Each chemical entity listed in Table 2 was tested for protein kinase inhibitory activity according to the biological assays and definitions of protein kinase inhibitory activity as described herein.

T1 sequence (P31749 whole entry): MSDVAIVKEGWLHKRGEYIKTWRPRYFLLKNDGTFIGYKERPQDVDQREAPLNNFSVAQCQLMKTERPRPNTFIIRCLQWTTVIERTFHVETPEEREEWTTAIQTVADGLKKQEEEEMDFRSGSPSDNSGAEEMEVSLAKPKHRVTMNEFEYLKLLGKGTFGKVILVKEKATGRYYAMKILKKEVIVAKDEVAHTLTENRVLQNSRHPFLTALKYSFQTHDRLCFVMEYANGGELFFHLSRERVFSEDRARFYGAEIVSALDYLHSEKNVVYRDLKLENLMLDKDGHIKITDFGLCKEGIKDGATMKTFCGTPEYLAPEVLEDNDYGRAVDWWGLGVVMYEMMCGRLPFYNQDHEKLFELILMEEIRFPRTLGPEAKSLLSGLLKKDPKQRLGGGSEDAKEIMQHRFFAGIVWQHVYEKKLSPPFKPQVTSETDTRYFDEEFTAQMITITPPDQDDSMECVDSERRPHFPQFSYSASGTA

Q: `O=C(c1cccs1)N(CCCN1CCCC(O)C1)c1nc(-c2cc3ccccc3o2)cs1` (stereo not shown) [N-(4-(benzofuran-2-yl)thiazol-2-yl)-N-(3-(3-hydroxypiperidin-1-yl)propyl)thiophene-2-carboxamide] was tested. Which Activity did it give?
A: AKT1

Q: With `CC(C)(C)OC(=O)[C@@H]1CCCN1CCCN(C(=O)c1cccs1)c1nc(-c2cc3ccccc3o2)cs1` [(S)-tert-butyl 1-(3-(N-(4-(benzofuran-2-yl)thiazol-2-yl)thiophene-2-carboxamido)propyl)pyrrolidine-2-carboxylate] as the compound, how does the Activity read?
A: AKT1

Q: `O=C(c1ccccc1)N(CCCN1CCOCC1)c1nc(-c2ccccc2)cs1` [N-(3-morpholinopropyl)-N-(4-phenylthiazol-2-yl)benzamide] was tested. Which Activity did it give?
A: AKT1

Q: With `CCN(CC)CCCN(C(=O)c1ccco1)c1nc(-c2cc(OC)ccc2OC)cs1` [N-(3-(diethylamino)propyl)-N-(4-(2,5-dimethoxyphenyl)thiazol-2-yl)furan-2-carboxamide] as the compound, how does the Activity read?
A: AKT1

Q: `O=C(c1cccs1)N(CCCN1CCC(O)(O)CC1)c1nc(-c2cc3ccccc3o2)cs1` [N-(4-(benzofuran-2-yl)thiazol-2-yl)-N-(3-(4,4-dihydroxypiperidin-1-yl)propyl)thiophene-2-carboxamide] was tested. Which Activity did it give?
A: AKT1

Q: With `COc1ccc(-c2csc(N(CCCN3CCOCC3)C(=O)c3cccs3)n2)c(OC)c1` [N-(4-(2,4-dimethoxyphenyl)thiazol-2-yl)-N-(3-morpholinopropyl)thiophene-2-carboxamide] as the compound, how does the Activity read?
A: AKT1

Q: Which Activity does the source give for `O=C(c1cccs1)N(CCCN1CCOCC1)c1nc(-c2cccs2)cs1` [N-(3-morpholinopropyl)-N-(4-(thiophen-2-yl)thiazol-2-yl)thiophene-2-carboxamide] here?
A: AKT1

Q: How did the Activity turn out when `O=C(c1cccs1)N(CCCN1CCOCC1)c1nc(-c2cccc(Cl)c2)cs1` [N-(4-(3-chlorophenyl)thiazol-2-yl)-N-(3-morpholinopropyl)thiophene-2-carboxamide] was run?
A: AKT1

Q: With `CNCCN(C)C(=O)CCN(C(=O)c1cccs1)c1nc(-c2cc3ccccc3o2)cs1` [N-(4-(benzofuran-2-yl)thiazol-2-yl)-N-(3-(methyl(2-(methylamino)ethyl)amino)-3-oxopropyl)thiophene-2-carboxamide] as the compound, how does the Activity read?
A: AKT1

Q: For `COc1ccc(-c2csc(N(CCCN3CCOCC3)C(=O)c3cccc(C)c3)n2)cc1` [N-(4-(4-methoxyphenyl)thiazol-2-yl)-3-methyl-N-(3-morpholinopropyl)benzamide], which Activity is on record?
A: AKT1

Q: For `COc1cccc(-c2csc(N(CCCN3CCOCC3)C(=O)c3cccs3)n2)c1` [N-(4-(3-methoxyphenyl)thiazol-2-yl)-N-(3-morpholinopropyl)thiophene-2-carboxamide], which Activity is on record?
A: AKT1

Q: For `COc1ccc(-c2csc(N(CCCN3CCCCCC3)C(=O)c3ccccc3)n2)cc1` [N-(3-(azepan-1-yl)propyl)-N-(4-(4-methoxyphenyl)thiazol-2-yl)benzamide], which Activity is on record?
A: AKT1

Q: `O=C(CCCN(C(=O)c1cccs1)c1nc(-c2cc3ccccc3o2)cs1)N(CCO)Cc1ccncc1` [N-(4-(benzofuran-2-yl)thiazol-2-yl)-N-(4-((2-hydroxyethyl)(pyridin-4-ylmethyl)amino)-4-oxobutyl)thiophene-2-carboxamide] was tested. Which Activity did it give?
A: AKT1

Q: `COc1ccc(-c2csc(N(CCCN3CCOCC3)C(=O)c3ccc(Cl)cc3)n2)cc1` [4-chloro-N-(4-(4-methoxyphenyl)thiazol-2-yl)-N-(3-morpholinopropyl)benzamide] was tested. Which Activity did it give?
A: AKT1

Q: With `CCc1nnc(NC(=O)c2csc(N(CCCN3CCOCC3)C(=O)c3cccs3)n2)s1` [N-(5-ethyl-1,3,4-thiadiazol-2-yl)-2-(N-(3-morpholinopropyl)thiophene-2-carboxamido)thiazole-4-carboxamide] as the compound, how does the Activity read?
A: AKT1

Q: `Cc1c(-c2csc(N(CCCN3CCOCC3)C(=O)c3cccs3)n2)cnn1-c1ccccc1` [N-(4-(5-methyl-1-phenyl-1H-pyrazol-4-yl)thiazol-2-yl)-N-(3-morpholinopropyl)thiophene-2-carboxamide] was tested. Which Activity did it give?
A: AKT1

Q: `O=C(c1cccs1)N(CCCN1CCOCC1)c1nc(-c2ccc(Cl)c(Cl)c2)cs1` [N-(4-(3,4-dichlorophenyl)thiazol-2-yl)-N-(3-morpholinopropyl)thiophene-2-carboxamide] was tested. Which Activity did it give?
A: AKT1

Q: With `COc1cccc(NC(=O)c2csc(N(CCCN3CCOCC3)C(=O)c3cccs3)n2)c1` [N-(3-methoxyphenyl)-2-(N-(3-morpholinopropyl)thiophene-2-carboxamido)thiazole-4-carboxamide] as the compound, how does the Activity read?
A: AKT1

Q: How did the Activity turn out when `CC(CO)NC(=O)CCCN(C(=O)c1cccs1)c1nc(-c2cc3ccccc3o2)cs1` (stereo not shown) [N-(4-(benzofuran-2-yl)thiazol-2-yl)-N-(4-(1-hydroxypropan-2-ylamino)-4-oxobutyl)thiophene-2-carboxamide] was run?
A: AKT1

Q: `CC(C)CN(C(=O)CCN(C(=O)c1cccs1)c1nc(-c2cc3ccccc3o2)cs1)C1CCS(=O)(=O)C1` (stereo not shown) [N-(4-(benzofuran-2-yl)thiazol-2-yl)-N-(3-(isobutyl(1,1-dioxo-tetrahydrothiophen-3-yl)amino)-3-oxopropyl)thiophene-2-carboxamide] was tested. Which Activity did it give?
A: AKT1

Q: Which Activity does the source give for `O=C(O)C1CCCN(C(=O)CCN(C(=O)c2cccs2)c2nc(-c3cc4ccccc4o3)cs2)C1` (stereo not shown) [1-(3-(N-(4-(benzofuran-2-yl)thiazol-2-yl)thiophene-2-carboxamido)propanoyl)piperidine-3-carboxylic acid] here?
A: AKT1

Q: Which Activity does the source give for `CC(=O)N1CCC(C(=O)NCCCN(C(=O)c2cccs2)c2nc(-c3cc4ccccc4o3)cs2)CC1` [1-acetyl-N-(3-(N-(4-(benzofuran-2-yl)thiazol-2-yl)thiophene-2-carboxamido)propyl)piperidine-4-carboxamide] here?
A: AKT1

Q: Which Activity does the source give for `O=C(CCN(C(=O)c1cccs1)c1nc(-c2cc3ccccc3o2)cs1)N1CCNCC1` [N-(4-(benzofuran-2-yl)thiazol-2-yl)-N-(3-oxo-3-(piperazin-1-yl)propyl)thiophene-2-carboxamide] here?
A: AKT1

Q: `O=C(CCCN(C(=O)c1cccs1)c1nc(-c2cc3ccccc3o2)cs1)N1CCSC1` [N-(4-(benzofuran-2-yl)thiazol-2-yl)-N-(4-oxo-4-(thiazolidin-3-yl)butyl)thiophene-2-carboxamide] was tested. Which Activity did it give?
A: AKT1

Q: `O=C(O)c1cccc(-c2csc(N(CCCN3CCOCC3)C(=O)c3cccs3)n2)c1` [3-(2-(N-(3-morpholinopropyl)thiophene-2-carboxamido)thiazol-4-yl)benzoic acid] was tested. Which Activity did it give?
A: AKT1

Q: `CN(C)CCN(C)C(=O)CCN(C(=O)c1cccs1)c1nc(-c2cc3ccccc3o2)cs1` [N-(4-(benzofuran-2-yl)thiazol-2-yl)-N-(3-((2-(dimethylamino)ethyl)(methyl)amino)-3-oxopropyl)thiophene-2-carboxamide] was tested. Which Activity did it give?
A: AKT1

Q: `O=C(c1cccs1)N(CCCN1CCOCC1)c1nc(-c2cc3ccccc3o2)cs1` [N-(4-(benzofuran-2-yl)thiazol-2-yl)-N-(3-morpholinopropyl)thiophene-2-carboxamide] was tested. Which Activity did it give?
A: AKT1

Q: `O=C(c1ccco1)N(CCCN1CCOCC1)c1nc(-c2ccccc2)cs1` [N-(3-morpholinopropyl)-N-(4-phenylthiazol-2-yl)furan-2-carboxamide] was tested. Which Activity did it give?
A: AKT1

Q: With `CN(C)C(=O)c1ccc(-c2csc(N(CCCN3CCOCC3)C(=O)c3cccs3)n2)cc1` [N-(4-(4-(dimethylcarbamoyl)phenyl)thiazol-2-yl)-N-(3-morpholinopropyl)thiophene-2-carboxamide] as the compound, how does the Activity read?
A: AKT1

Q: Which Activity does the source give for `CC(=O)NC1CCN(C(=O)CCCN(C(=O)c2cccs2)c2nc(-c3cc4ccccc4o3)cs2)C1` (stereo not shown) [N-(4-(3-acetamidopyrrolidin-1-yl)-4-oxobutyl)-N-(4-(benzofuran-2-yl)thiazol-2-yl)thiophene-2-carboxamide] here?
A: AKT1

Q: `O=C(c1cccs1)N(CCCN1CCOCC1)c1nc(-c2ccccc2)cs1` [N-(3-morpholinopropyl)-N-(4-phenylthiazol-2-yl)thiophene-2-carboxamide] was tested. Which Activity did it give?
A: AKT1

Q: How did the Activity turn out when `O=C(O)CNC(=O)c1ccc(-c2csc(N(CCCN3CCOCC3)C(=O)c3cccs3)n2)cc1` [2-(4-(2-(N-(3-morpholinopropyl)thiophene-2-carboxamido)thiazol-4-yl)benzamido)acetic acid] was run?
A: AKT1

Q: Which Activity does the source give for `O=C(c1cccs1)N(CCCCCN1CCOCC1)c1nc(-c2cc3ccccc3o2)cs1` [N-(4-(benzofuran-2-yl)thiazol-2-yl)-N-(5-morpholinopentyl)thiophene-2-carboxamide] here?
A: AKT1

Q: With `O=C(c1cccs1)N(CCCN1CCN(CCOCCO)CC1)c1nc(-c2cc3ccccc3o2)cs1` [N-(4-(benzofuran-2-yl)thiazol-2-yl)-N-(3-(4-(2-(2-hydroxyethoxy)ethyl)piperazin-1-yl)propyl)thiophene-2-carboxamide] as the compound, how does the Activity read?
A: AKT1
